The results in this text go back to ChEMBL document CHEMBL1141428, “Polyisoprenylated benzoylphloroglucinol derivatives from Hypericum sampsonii” (2007).

In brackets after ≈: the same amount, converted by molar mass.

The experiment has as its system Staphylococcus aureus. The experiment is described as follows: Antibacterial activity against multidrug-resistant Staphylococcus aureus 1199B overexpressing NorA after 18 hrs. It is filed as functional.

For the compound `CC(C)=CC[C@H]1C[C@]2(CC=C(C)C)C(=O)C(C(=O)c3ccccc3)=C(O)[C@](CC=C(C)C)(C2=O)C1(C)C`, the lowest concentration to inhibit growth (MIC) was 7.3 µM (≈ 3.67 µg/mL). In the case of `CCn1cc(C(=O)O)c(=O)c2cc(F)c(N3CCNCC3)cc21` [NORFLOXACIN], the lowest concentration to inhibit growth (MIC) was 100 µM (≈ 31.9 µg/mL).
